Structures are written as SMILES.

In this test the test system is Plasmodium falciparum. As to the kind of experiment: GSK_TCMDC: Inhibition of Plasmodium falciparum 3D7 in whole erythrocytes, using parasite LDH activity as an index of growth. It is filed as functional, organism-based. To be noted: Plasmodium falciparum, 3D7.
In the case of `COc1cc2nc(N3CCN(C(=O)c4ccco4)CC3)nc(NCc3ccccc3)c2cc1OC`, the XC50 came to 167 nM.
With `COc1ccc(CN2CCCN(Cc3cccc(C(=O)Nc4ccc(C)c(F)c4)c3)CC2)cc1`, the XC50 came out at 1310 nM.
With `Cc1cnccc1/C=C/c1cccc(OCCN2CCc3ccc(S(C)(=O)=O)cc3CC2)c1` the figure was 267 nM; with `COc1cc(Cc2cnc(N)nc2N)cc(OCCCCc2ccc([N+](=O)[O-])cc2)c1OC`, 989 nM.
With `COc1ccc(O)c(C(=O)c2cc(C(=O)NCCc3ccccc3)c(=O)n(CCc3ccccc3)c2)c1` the figure was 1010 nM; with `c1ccc(-c2ccc3c(Nc4ccc5[nH]ncc5c4)ccnc3c2)nc1`, 822 nM; with `NCC1CCCN1Cc1cccc(-c2ccc(-c3nc4ccccc4[nH]3)s2)c1` (stereo not drawn), 1040 nM.
With `c1ccc(CCNc2ncnc3c2[nH]c2ccccc23)cc1` the figure was 601 nM; with `COc1ccc(CCN2CCC(NCc3cccc(N(C)C)c3)CC2)cc1`, 1320 nM; with `CCCN1CCN(c2ccc(NS(=O)(=O)c3ccc(C(=O)Nc4ccc(Cl)cc4)cc3)cc2)CC1`, 1110 nM.
Compound `Cc1noc(C)c1-c1ccc2c(Nc3ccc(Cl)cc3)c(C(N)=O)cnc2c1` came in with an XC50 of 826 nM.
`COc1c(F)ccc2ncc(Cl)c(CCN3CCC(NCc4ccc5c(n4)NC(=O)CS5)CC3)c12` registered an XC50 of 544 nM.
In the case of `O=C(N[C@@H](CC1CCCCC1)C(=O)NC1CCCc2ccccc21)c1ccc(O)c(-c2ccc(Cl)c(Cl)c2)c1` (stereo partly drawn) it was 195 nM; in that of `N#Cc1ccccc1C1CCN(C2CCC(Nc3cc(-c4cccnc4)ccn3)CC2)CC1` (stereo not drawn), 958 nM; in that of `COc1cc2ncnc(Nc3ccc(OCc4ccccc4Br)c(OC)c3)c2cc1OC`, 427 nM.
In the case of `CS(=O)(=O)Nc1cccc(-c2cnc3[nH]cc(-c4cc(N)cc(C(=O)O)c4)c3c2)c1` it was 1080 nM.
As to `NC1=Nc2ccc(Cl)cc2C1(O)c1ccccc1` (stereo not drawn), the XC50 was found to be 876 nM.
With `COc1cc(N(Cc2ccc(F)cc2)C(=O)c2ccc(-c3ccccc3)cc2)ccc1OCCN1CCCC1` the figure was 830 nM.
In the case of `CCc1cccc2c(C#N)cn(CC(=O)Nc3ccc(OC)cc3)c12` it was 772 nM; in that of `CN(C)CCNCc1cccc(-c2ccc3c(Nc4ccc(F)cc4Cl)ccnc3c2)c1`, 809 nM; in that of `Cc1ccccc1CCNC(=O)c1cnc(N2CCN(c3ccncc3)CC2)c(Cl)c1`, 1060 nM.
In the case of `COc1ccc2c(OC)ccc(CNCCCCCCNCc3ccc(OC)c4ccc(OC)cc34)c2c1` it was 399 nM; in that of `CCCOc1ccc(CCCON2C(N)=NC(N)=NC2(C)C)cc1`, 3.2 nM; in that of `CC(C)(CNCc1ccc(F)c(F)c1)c1nc(-c2ccnc(N)n2)c(-c2ccc(Cl)c(O)c2)[nH]1`, 740 nM.
In turn, `COc1ccc(CCNCCCCCCNCCc2cccc([N+](=O)[O-])c2)cc1OC` displayed an XC50 of 997 nM.
With `SC(=Nc1ccc2c(c1)OCCO2)NN=Cc1ccccn1` the figure was 1050 nM; with `CNC(=O)c1cnc(Nc2ccc(OCC(O)CN(C)C)cc2)nc1Nc1cccc([N+](=O)[O-])c1` (stereo not drawn), 617 nM; with `CC(C)CC(=O)N1CCNC[C@@H]1C(=O)NCc1ccc(Cl)c(Cl)c1`, 950 nM.
With `CNCCNCc1cccc(-c2ccc(-c3nc4cccc(C)c4[nH]3)cc2)c1` the figure was 798 nM; with `Cc1c(N=O)cc(C(C)(C)C)c(O)c1C(=O)Nc1ccc([N+](=O)[O-])cc1Cl`, 775 nM.
In the case of `O=C1Nc2cccc3c2C1(CCCCN1CCC(c2c[nH]c4cc(C(F)(F)F)ccc24)CC1)CCC3` (stereo not drawn) it was 715 nM; in that of `Cn1nc(-c2ccc(NC(=O)Nc3cc(C(F)(F)F)ccc3F)cc2)c2cnc(NCCCCN3CCCC3)nc21`, 531 nM.
`CCN(CC)CCOc1ccc(C(O)(C#CC(O)(c2ccc(C)cc2)c2ccc(OCCN(CC)CC)cc2)c2ccc(C)cc2)cc1` (stereo not drawn) yielded an XC50 of 903 nM.
With `COc1ccc2c(NN=Cc3cccnc3)ccnc2c1` the figure was 684 nM; with `Clc1cccc(-c2nc(Nc3ccnc(-c4ccc(CN5CCOCC5)cc4)c3)c3ccccc3n2)c1`, 710 nM.
In the case of `NC1CCN(Cc2cccc(-c3csc(-c4nc5ccccc5[nH]4)c3)c2)C1` (stereo not drawn) it was 892 nM; in that of `O=C(/C=C/c1ccc(Cl)cc1)NCCCCCN1CCCC(C(=O)Nc2ccc(F)c(Cl)c2)C1` (stereo not drawn), 1120 nM; in that of `CC(=O)Nc1ccc(CN2CCC(CNC(=O)c3cc(-c4cccc(Cl)c4)cs3)C2)cc1` (stereo not drawn), 1120 nM.
In the case of `COC(=O)c1ccc(CC(C)NCC(O)c2cccc(OC(F)(F)F)c2)cc1` (stereo not drawn) it was 863 nM; in that of `N#Cc1cccc(C(=O)Nc2ccc(-c3ccc(CN4CCCC4)cc3)cc2)c1`, 1150 nM; in that of `N#Cc1cccc(C(=O)Nc2cccc(-c3ccc(CN4CCCC4)cc3)c2)c1`, 695 nM.
In turn, `FC(F)(F)c1ccc2[nH]c(-c3ccc(-c4ccc(CNCCN5CCNCC5)cc4)s3)nc2c1` showed an XC50 of 910 nM.
In the case of `C[C@H]1CN(Cc2cccc(-c3cc(CNC(=O)c4cccc(C(=O)c5ccc(Cl)c(Cl)c5)c4)ccc3F)c2)CCN1` it was 1140 nM; in that of `CCC[C@@H]([C@@H](Cc1ccc(C)s1)C(=O)N[C@@H](CNC(C)=O)C(=O)Nc1nccs1)N(O)C=O`, 176 nM.
In the case of `O=C(Nc1cc(Cl)cc(Cl)c1)c1cc(Cl)c(=O)n(Cc2cccc(Cl)c2)c1`, the XC50 is 752 nM.
The compound `COc1cc2nc(N(C)C)nc(Nc3ccc(OCc4ccccc4)cc3)c2cc1OC` came in with an XC50 of 71.8 nM.
In the case of `Oc1ccc(CCNc2nc(NCc3ccccc3-c3ccc(C(F)(F)F)cc3)nc(NC3CCNCC3)n2)cc1` it was 924 nM; in that of `COc1ccc(OC)c2c1CCN(CCN1CCC(C(=O)Nc3ccc(C(=O)Nc4ccc(Cl)cc4)cc3)CC1)C2`, 582 nM.
With `N=C(NCCc1c[nH]c2ccccc12)NCc1ccccc1Cl` the figure was 112 nM; with `CON(C)C(=O)[C@@H](CCCCNC(=O)OCc1ccccc1)NC(=O)OC(C)(C)C`, 195 nM; with `COc1cc([N+](=O)[O-])ccc1NC(=O)Nc1ccc(OC(F)(F)F)cc1`, 1030 nM.
In the case of `CC1(C)N=C(N)N=C(N)N1c1ccc(Cl)c(Cl)c1` it was 3.2 nM.
Consider `O=C1CN(C(=O)CCC2CCCC2)C(c2ccc(F)cc2)c2cc(F)ccc2N1` (stereo not drawn), for which the XC50 was 168 nM.
With `CN1CCC=C(C(=O)NCC(C)(C)c2nc(-c3ccc(Cl)c(O)c3)c(-c3ccncc3)[nH]2)C1` the figure was 1000 nM; with `COc1cc2nc(N(C)CC3COc4ccccc4O3)nc(N)c2cc1OC` (stereo not drawn), 1550 nM; with `CCCC1N=C(N)N=C(N)N1c1ccc(C)cc1` (stereo not drawn), 95.2 nM.
In the case of `COc1cc(-c2ccc3c(-c4ccc(C(=O)N5CCN(C)CC5)cc4)n[nH]c3n2)cc(OC)c1OC` it was 1330 nM; in that of `CCN(CC)C(=O)C(=O)c1c[nH]c2ccc(Cl)cc12`, 81.1 nM; in that of `COCCN1CCN(Cc2ccc(-c3ccc(-c4nc5cc(F)ccc5[nH]4)cc3)cc2)CC1`, 717 nM.
Turning to `O=C(CCc1c[nH]cn1)Nc1cccc(-c2cccc(-c3nc4cc(C(F)(F)F)ccc4[nH]3)c2)c1`, the XC50 was 132 nM.
Consider `CC(=O)Nc1ccc(OCCN(Cc2ccccc2OC(F)(F)F)c2ccc(C(F)(F)F)c(C#N)c2)c(Cl)c1`, for which the XC50 stood at 456 nM.
In the case of `Cc1[nH]c(C)c([N+](=O)[O-])c(=O)c1-c1ccc(Oc2ccccc2)cc1` it was 266 nM; in that of `CC[C@H]1CN2CC[C@H]1C[C@H]2[C@H](O)c1ccnc2ccc(OC)cc12`, 154 nM.

The record behind these values is ChEMBL document CHEMBL1157539, “Thousands of chemical starting points for antimalarial lead identification” (Nature, 2010).
